Experimental data published in ChEMBL document CHEMBL5214923, “Contemporary mTOR inhibitor scaffolds to diseases breakdown: A patent review (2015-2021)” (Eur J Med Chem, 2022).

Legend:
mTORC1 [1] = biological target: T1, mTORC1 (Homo sapiens, UniProt P42345+Q8N122+Q9BVC4); experiment: Inhibition of mTORC1 (unknown origin) assessed as measuring phosphorylated 4EBP1 level at 1 uM relative to control; type: protein-complex assay
mTORC1 [2] = biological target: T1, mTORC1; experiment: Inhibition of mTORC1 (unknown origin) assessed as measuring phosphorylated p7OS6K level at 0.2 uM relative to control; type: protein-complex assay
mTORC2 (Homo sapiens) = mTORC2 (Homo sapiens) (UniProt P42345+Q6R327+Q9BVC4+Q9BPZ7); experiment: Inhibition of mTORC2 (unknown origin) assessed as measuring phosphorylated AKT at 0.5 uM relative to control; type: protein-complex assay
[3] = biological target: T2, Serine/threonine-protein kinase mTOR (Homo sapiens, UniProt P42345); experiment: Inhibition of recombinant mTOR (unknown origin) using GFP-4E-BP1 as substrate preincubated for 15 mins followed by substrate addition measured after 1 hr by TR-FRET assay
[4] = biological target: PI3-kinase p110-alpha/p85-alpha (Homo sapiens, UniProt P42336); experiment: Inhibition of PI3K p110alpha/p85alpha (unknown origin) using PIP2 as substrate preincubated for 15 mins followed by substrate addition measured after 1 hr in presence of ATP by TR-FRET assay; type: protein-complex assay
Chain of PI3-kinase p110-alpha/p85-alpha (P27986 whole entry): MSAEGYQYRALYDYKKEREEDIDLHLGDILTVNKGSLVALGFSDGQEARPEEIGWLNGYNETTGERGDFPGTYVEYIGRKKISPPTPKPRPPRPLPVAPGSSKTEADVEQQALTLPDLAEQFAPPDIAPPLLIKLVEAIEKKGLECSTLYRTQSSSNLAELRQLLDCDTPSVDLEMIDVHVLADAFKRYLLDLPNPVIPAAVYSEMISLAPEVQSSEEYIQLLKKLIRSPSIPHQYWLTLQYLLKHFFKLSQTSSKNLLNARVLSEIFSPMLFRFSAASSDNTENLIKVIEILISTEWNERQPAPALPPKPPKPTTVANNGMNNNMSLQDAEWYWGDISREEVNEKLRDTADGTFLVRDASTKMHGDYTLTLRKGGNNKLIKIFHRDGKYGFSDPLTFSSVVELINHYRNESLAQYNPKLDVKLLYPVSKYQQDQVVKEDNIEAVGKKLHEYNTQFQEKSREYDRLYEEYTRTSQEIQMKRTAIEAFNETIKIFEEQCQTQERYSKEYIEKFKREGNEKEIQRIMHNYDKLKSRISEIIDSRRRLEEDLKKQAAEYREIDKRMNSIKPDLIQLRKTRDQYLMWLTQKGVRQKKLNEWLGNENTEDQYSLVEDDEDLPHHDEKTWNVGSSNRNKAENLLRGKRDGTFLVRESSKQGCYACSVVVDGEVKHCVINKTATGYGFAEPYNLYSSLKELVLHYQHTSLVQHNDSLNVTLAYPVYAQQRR
Chain of PI3-kinase p110-alpha/p85-alpha (P42336 whole entry): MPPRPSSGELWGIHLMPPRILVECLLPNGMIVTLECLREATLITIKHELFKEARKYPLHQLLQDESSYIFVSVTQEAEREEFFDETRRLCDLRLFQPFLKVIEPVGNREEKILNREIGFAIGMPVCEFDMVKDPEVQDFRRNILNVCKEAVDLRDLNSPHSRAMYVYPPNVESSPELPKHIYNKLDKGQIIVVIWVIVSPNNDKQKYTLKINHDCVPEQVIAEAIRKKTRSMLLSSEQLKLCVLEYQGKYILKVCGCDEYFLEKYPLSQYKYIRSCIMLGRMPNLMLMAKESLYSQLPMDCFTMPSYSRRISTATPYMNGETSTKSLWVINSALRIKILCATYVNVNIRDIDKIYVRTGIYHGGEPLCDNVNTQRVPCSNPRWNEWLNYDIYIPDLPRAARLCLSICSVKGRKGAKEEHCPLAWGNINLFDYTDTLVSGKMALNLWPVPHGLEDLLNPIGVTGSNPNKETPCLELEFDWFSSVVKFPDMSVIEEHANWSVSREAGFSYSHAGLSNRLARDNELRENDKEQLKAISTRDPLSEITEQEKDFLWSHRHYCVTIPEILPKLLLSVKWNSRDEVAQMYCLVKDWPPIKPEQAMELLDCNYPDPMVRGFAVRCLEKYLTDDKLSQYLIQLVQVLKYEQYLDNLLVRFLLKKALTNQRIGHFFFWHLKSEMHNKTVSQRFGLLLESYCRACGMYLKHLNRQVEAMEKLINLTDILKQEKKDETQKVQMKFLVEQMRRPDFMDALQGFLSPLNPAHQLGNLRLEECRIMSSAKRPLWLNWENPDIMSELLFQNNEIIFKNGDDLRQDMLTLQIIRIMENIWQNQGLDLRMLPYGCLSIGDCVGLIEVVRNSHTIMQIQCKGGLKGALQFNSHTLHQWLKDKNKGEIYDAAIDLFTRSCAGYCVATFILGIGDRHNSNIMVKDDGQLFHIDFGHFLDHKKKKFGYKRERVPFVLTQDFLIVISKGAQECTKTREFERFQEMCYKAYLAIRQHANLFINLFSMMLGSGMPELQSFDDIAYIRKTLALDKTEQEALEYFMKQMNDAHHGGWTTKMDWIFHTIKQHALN

mTORC1 [5] = biological target: T1, mTORC1; experiment: Inhibition of mTORC1 (unknown origin); type: protein-complex assay
mTORC2 [6] = biological target: T3, mTORC2 (Homo sapiens, UniProt P42345+Q6R327+Q9BPZ7+Q9BVC4); experiment: Inhibition of mTORC2 (unknown origin); type: protein-complex assay
[7] = biological target: T2, Serine/threonine-protein kinase mTOR; experiment: Inhibition of mTOR (unknown origin)
[8] = Solubility of the compound in water; type: physicochemical
A549 = experiment: Antitumor activity against human A549 cells assessed as cell growth inhibition incubated for 72 hrs by Cell Titer-Glo assay; type: functional, cell-based; conditions: A549, 72 h
[9] = biological target: T2, Serine/threonine-protein kinase mTOR; experiment: Inhibition of human mTOR assessed as measuring phosphorylated p70S6K level by TR-FRET assay
[10] = biological target: T2, Serine/threonine-protein kinase mTOR; experiment: Inhibition of mTOR (unknown origin) assessed as residual activity at 30 nM relative to control; values are per cent of control
[11] = biological target: Phosphatidylinositol 4,5-bisphosphate 3-kinase catalytic subunit alpha isoform (Homo sapiens, UniProt P42336); experiment: Inhibition of human PI3Kalpha preincubated for 15 mins followed by ATP addition measured after 1 hr by TR-FRET assay
Chain of Phosphatidylinositol 4,5-bisphosphate 3-kinase catalytic subunit alpha isoform (P42336 whole entry, canonical isoform): as the sequence (P42336 whole entry) above

[12] = biological target: T4, Phosphatidylinositol 4,5-bisphosphate 3-kinase catalytic subunit gamma isoform (Homo sapiens, UniProt P48736); experiment: Inhibition of human PI3Kgamma preincubated for 15 mins followed by ATP addition measured after 1 hr by TR-FRET assay
T4 sequence (P48736 whole entry, canonical isoform): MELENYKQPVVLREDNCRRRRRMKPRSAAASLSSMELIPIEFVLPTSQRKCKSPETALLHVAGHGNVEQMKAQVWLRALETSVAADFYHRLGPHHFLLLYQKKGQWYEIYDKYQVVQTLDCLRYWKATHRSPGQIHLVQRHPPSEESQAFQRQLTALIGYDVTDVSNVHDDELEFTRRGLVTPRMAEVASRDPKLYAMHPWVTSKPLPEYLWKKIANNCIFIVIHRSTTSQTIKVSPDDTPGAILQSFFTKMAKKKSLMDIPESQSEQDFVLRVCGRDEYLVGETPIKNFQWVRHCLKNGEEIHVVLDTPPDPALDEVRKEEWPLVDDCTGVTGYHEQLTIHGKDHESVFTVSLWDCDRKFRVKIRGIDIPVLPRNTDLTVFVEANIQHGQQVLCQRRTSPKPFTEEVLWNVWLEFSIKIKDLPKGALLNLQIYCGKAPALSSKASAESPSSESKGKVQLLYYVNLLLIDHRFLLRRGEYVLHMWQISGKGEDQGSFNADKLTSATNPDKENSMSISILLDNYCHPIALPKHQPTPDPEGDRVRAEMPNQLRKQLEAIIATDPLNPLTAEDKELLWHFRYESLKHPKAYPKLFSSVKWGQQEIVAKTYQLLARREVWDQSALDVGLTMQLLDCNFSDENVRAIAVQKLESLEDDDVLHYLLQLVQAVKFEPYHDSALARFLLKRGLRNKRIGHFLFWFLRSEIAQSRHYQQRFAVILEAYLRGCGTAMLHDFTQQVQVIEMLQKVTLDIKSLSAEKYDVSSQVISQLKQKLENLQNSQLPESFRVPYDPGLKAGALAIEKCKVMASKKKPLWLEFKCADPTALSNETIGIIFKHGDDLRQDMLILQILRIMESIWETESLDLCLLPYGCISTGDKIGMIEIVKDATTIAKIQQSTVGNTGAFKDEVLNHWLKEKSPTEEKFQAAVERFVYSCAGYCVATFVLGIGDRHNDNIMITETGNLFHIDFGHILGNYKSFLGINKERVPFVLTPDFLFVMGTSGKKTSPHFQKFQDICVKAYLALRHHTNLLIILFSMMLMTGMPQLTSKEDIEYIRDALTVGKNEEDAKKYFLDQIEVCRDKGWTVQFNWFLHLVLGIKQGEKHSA

[13] = biological target: T5, Phosphatidylinositol 4,5-bisphosphate 3-kinase catalytic subunit delta isoform (Homo sapiens, UniProt O00329); experiment: Inhibition of human PI3Kdelta preincubated for 15 mins followed by ATP addition measured after 1 hr by TR-FRET assay
T5 sequence (O00329 whole entry): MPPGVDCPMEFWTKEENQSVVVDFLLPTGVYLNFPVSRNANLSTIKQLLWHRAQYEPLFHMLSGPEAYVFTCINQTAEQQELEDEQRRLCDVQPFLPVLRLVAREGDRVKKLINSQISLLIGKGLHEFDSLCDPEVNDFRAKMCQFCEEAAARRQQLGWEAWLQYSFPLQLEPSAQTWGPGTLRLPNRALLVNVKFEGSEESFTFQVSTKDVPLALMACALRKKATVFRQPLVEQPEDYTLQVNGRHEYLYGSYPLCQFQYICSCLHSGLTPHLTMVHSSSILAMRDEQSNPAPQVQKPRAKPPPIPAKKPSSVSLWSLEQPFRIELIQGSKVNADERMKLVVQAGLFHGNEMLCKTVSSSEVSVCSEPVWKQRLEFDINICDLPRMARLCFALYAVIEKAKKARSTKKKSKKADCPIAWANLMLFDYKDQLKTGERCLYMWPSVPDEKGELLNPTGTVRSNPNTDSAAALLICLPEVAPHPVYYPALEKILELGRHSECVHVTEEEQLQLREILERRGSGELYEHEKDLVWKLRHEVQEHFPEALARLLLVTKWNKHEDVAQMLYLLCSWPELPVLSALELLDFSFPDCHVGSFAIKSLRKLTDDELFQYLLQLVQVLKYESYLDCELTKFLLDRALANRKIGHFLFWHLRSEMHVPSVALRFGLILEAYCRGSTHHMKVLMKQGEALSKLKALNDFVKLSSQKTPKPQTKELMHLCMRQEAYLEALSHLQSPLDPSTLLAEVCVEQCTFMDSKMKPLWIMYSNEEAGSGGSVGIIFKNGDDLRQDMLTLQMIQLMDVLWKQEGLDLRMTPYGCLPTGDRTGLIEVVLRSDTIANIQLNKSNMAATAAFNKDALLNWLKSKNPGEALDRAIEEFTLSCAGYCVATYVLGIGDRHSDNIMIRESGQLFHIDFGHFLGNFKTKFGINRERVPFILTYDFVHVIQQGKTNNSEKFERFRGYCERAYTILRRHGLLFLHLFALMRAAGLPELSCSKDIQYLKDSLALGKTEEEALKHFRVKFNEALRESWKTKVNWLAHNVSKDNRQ

DU-145 = experiment: Antitumor activity against human DU-145 cells assessed as cell growth inhibition; type: functional, cell-based
SF-268 = experiment: Antitumor activity against human SF-268 cells assessed as cell growth inhibition; type: functional, cell-based
[14] = Antitumor activity against human U-87 MG cells assessed as cell growth inhibition; type: functional, cell-based, U-87MG ATCC
PC-3 = experiment: Antitumor activity against human PC-3 cells assessed as cell growth inhibition; type: functional, cell-based
mTORC1 [15] = biological target: T1, mTORC1; experiment: Inhibition of mTORC1 in human PC-3 cells assessed as measuring phosphorylated S6K level incubated for 24 hrs by AlphaLISA assay; type: cell-based
mTORC2 [16] = biological target: T3, mTORC2; experiment: Inhibition of mTORC2 in human PC-3 cells assessed as measuring phosphorylated Akt level incubated for 24 hrs by AlphaLISA assay; type: cell-based
[17] = biological target: T4, Phosphatidylinositol 4,5-bisphosphate 3-kinase catalytic subunit gamma isoform; experiment: Inhibition of PI3Kgamma (unknown origin) by TR-FRET assay
[18] = biological target: Phosphatidylinositol 4,5-bisphosphate 3-kinase catalytic subunit beta isoform (Homo sapiens, UniProt P42338); experiment: Inhibition of PI3Kbeta (unknown origin) by TR-FRET assay
Chain of Phosphatidylinositol 4,5-bisphosphate 3-kinase catalytic subunit beta isoform (P42338 whole entry, canonical isoform): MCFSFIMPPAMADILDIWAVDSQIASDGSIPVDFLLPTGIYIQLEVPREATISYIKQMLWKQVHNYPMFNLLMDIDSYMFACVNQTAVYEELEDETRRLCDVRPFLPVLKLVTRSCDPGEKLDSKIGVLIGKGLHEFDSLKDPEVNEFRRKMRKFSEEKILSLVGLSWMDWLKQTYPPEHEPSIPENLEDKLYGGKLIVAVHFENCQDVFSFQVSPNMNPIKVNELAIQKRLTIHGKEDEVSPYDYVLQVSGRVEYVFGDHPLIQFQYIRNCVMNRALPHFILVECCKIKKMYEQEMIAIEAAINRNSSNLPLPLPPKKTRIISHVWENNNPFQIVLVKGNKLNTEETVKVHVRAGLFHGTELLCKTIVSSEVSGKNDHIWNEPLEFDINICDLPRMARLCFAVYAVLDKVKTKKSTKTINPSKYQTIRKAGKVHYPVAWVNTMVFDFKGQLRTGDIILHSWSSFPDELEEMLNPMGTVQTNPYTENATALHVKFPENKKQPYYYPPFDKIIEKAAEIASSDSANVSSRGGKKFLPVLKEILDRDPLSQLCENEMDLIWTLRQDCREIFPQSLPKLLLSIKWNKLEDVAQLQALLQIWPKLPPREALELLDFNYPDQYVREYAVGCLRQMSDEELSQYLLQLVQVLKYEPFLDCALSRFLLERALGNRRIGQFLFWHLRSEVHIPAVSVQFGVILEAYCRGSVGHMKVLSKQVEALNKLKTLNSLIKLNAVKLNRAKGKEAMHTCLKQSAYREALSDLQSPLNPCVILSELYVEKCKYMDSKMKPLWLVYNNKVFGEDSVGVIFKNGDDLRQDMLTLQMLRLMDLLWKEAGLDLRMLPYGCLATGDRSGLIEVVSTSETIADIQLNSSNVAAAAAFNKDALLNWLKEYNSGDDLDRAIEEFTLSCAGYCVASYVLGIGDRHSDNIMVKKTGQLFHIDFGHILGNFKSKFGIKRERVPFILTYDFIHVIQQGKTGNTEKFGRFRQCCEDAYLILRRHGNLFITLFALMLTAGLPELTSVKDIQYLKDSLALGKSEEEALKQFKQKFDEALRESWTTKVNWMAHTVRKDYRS

mTORC1 [19] = biological target: T1, mTORC1; experiment: Inhibition of mTORC1 in human Jurkat cells assessed as inhibition of S6K phosphorylation incubated for 4 hrs by Western blot analysis; type: cell-based
[20] = biological target: Peptidyl-prolyl cis-trans isomerase FKBP1A (Homo sapiens, UniProt P62942); experiment: Binding affinity to FKBP12 (unknown origin) assessed as inhibition constant
Chain of Peptidyl-prolyl cis-trans isomerase FKBP1A (P62942 whole entry): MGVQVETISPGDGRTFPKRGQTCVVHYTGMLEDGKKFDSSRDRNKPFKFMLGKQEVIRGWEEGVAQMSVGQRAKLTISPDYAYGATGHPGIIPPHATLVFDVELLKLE

CNC(=O)c1cccc(-c2ccc3c(N4CCOC[C@@H]4C)nc(N4CCOC[C@@H]4C)nc3n2)c1
inhibition (mTORC1 [1]): 83.8% | inhibition (mTORC1 [2]): 87.7% | inhibition (mTORC2 (Homo sapiens)): 73.9%

C[C@H]1COCCN1c1nc(N2CCO[C@@H]3CCCC[C@@H]32)nc2nc(-c3cccc(C4=NCC(C)(C)N4)c3)ccc12
inhibition (mTORC1 [1]): 83.2% | inhibition (mTORC1 [2]): 77.7% | inhibition (mTORC2 (Homo sapiens)): 56.2%

CN(C)C(=O)C1CCC(Oc2nc(-c3ccc(N)nc3)nc(N3CCOCC3)n2)CC1 (stereo not drawn)
IC50 [3]: < 1000 nM | IC50 [4]: < 1000 nM

O=c1[nH]c2ncc(-c3ccc(-c4nc[nH]n4)cc3)nc2n1CCC1CCOCC1
IC50 (mTORC1 [5]): 2 nM | IC50 (mTORC2 [6]): 40 nM | IC50 [7]: 18 nM

CO[C@@H]1C[C@@H]2CC[C@@H](C)[C@@](O)(O2)C(=O)C(=O)N2CCCC[C@H]2C(=O)O[C@H]([C@H](C)C[C@@H]2CC[C@@H](OC(=O)C[n+]3csc(C)c3C)[C@H](OC)C2)CC(=O)[C@H](C)/C=C(\C)[C@@H](O)[C@@H](OC)C(=O)[C@H](C)C[C@H](C)/C=C/C=C/C=C/1C.[Br-]
solubility [8]: 4200 µg/mL | IC50 (A549): 7400 nM

COc1ccc(-c2ccc3c(N4CCOC[C@@H]4C)cc(N4CCOC[C@@H]4C)nc3n2)cc1
IC50 [9]: < 100 nM

CN(C)CC(=O)Nc1ccc(-c2ccc3ncc4c(c3c2)n(-c2ccc(C(C)(C)C#N)cc2)c2nncn42)cn1
residual activity [10]: < 5%

Nc1ncnc2c1c(-c1cc3cc(O)cc(Cl)c3[nH]1)nn2C1CCOCC1
IC50 (mTORC1 [5]): < 5 nM | IC50 [11]: 100 nM | IC50 [12]: 25 nM | IC50 [13]: 10 nM

C[C@H]1COCCN1c1cc(N2CCOC[C@@H]2C)c2ccc(-c3ccc(CNCCO)cc3)nc2n1
IC50 [9]: < 100 nM

CC(C)n1nc(-c2cc3cc(O)cc(F)c3[nH]2)c2c(N)ncnc21
IC50 (mTORC1 [5]): < 5 nM | IC50 [12]: 100 nM | IC50 [13]: 50 nM

CC(=O)N1CCC(n2nc(-c3cc4cc(O)cc(Cl)c4[nH]3)c3c(N)ncnc32)CC1
IC50 (mTORC1 [5]): < 5 nM | IC50 [11]: 100 nM | IC50 [12]: 50 nM | IC50 [13]: 10 nM

COc1cccc2cc(-c3nn(C4CCOCC4)c4ncnc(N)c34)[nH]c12
IC50 (mTORC1 [5]): < 5 nM | IC50 [11]: 100 nM | IC50 [12]: 10 nM | IC50 [13]: 10 nM

CNC(=O)c1cccc(-c2ccc3c(N4CCOC[C@@H]4C)nc(N4CCO[C@@H]5CCC[C@@H]54)nc3n2)c1
inhibition (mTORC1 [1]): 62% | inhibition (mTORC1 [2]): 89.9% | inhibition (mTORC2 (Homo sapiens)): 89%

CO[C@@H]1C[C@@H]2CC[C@@H](C)[C@@](O)(O2)C(=O)C(=O)N2CCCC[C@H]2C(=O)O[C@H]([C@H](C)C[C@@H]2CC[C@@H](OC(=O)C[n+]3csc(C)c3C)[C@H](OC)C2)CC(=O)[C@H](C)/C=C(\C)[C@@H](OC(=O)C[n+]2csc(C)c2C)[C@@H](OC)C(=O)[C@H](C)C[C@H](C)/C=C/C=C/C=C/1C.[Br-].[Br-]
solubility [8]: 100000 µg/mL | IC50 (A549): 6230 nM

COc1ccc(-c2ccc3c(N4CCOC[C@@H]4C)nc(N4CCOC[C@@H]4C)cc3n2)cc1CO
IC50 [9]: < 100 nM

COc1ccc(-c2ccc3c(N4CCOC[C@@H]4C)nc(N4CCOC[C@@H]4C)cc3n2)cc1
IC50 [9]: < 100 nM

CO[C@@H]1C[C@@H]2CC[C@@H](C)[C@@](O)(O2)C(=O)C(=O)N2CCCC[C@H]2C(=O)O[C@H]([C@H](C)C[C@@H]2CC[C@@H](O)[C@H](OC)C2)CC(=O)[C@H](C)/C=C(\C)[C@@H](OC(=O)C[n+]2csc(C)c2C)[C@@H](OC)C(=O)[C@H](C)C[C@H](C)/C=C/C=C/C=C/1C.[Br-]
solubility [8]: 10000 µg/mL | IC50 (A549): 3040 nM

CO[C@H]1C[C@@H]2CC[C@@H](C)[C@@](O)(O2)C(=O)C(=O)N2CCCC[C@H]2C(=O)O[C@H]([C@H](C)C[C@@H]2CC[C@@H](O)[C@H](OC)C2)CC(=O)[C@H](C)/C=C(\C)[C@@H](O)[C@@H](OC)C(=O)[C@H](C)C[C@H](C)/C=C/C=C/C=C/1C [SIROLIMUS]
IC50 (A549): 49400 nM | IC50 (DU-145): 4000 nM | IC50 (SF-268): 2700 nM | IC50 [14]: 10000 nM | IC50 (PC-3): 1300 nM

CC(C)(O)c1ccc(-c2cnc3[nH]c(=O)n(CC4CCOCC4)c3n2)cn1
IC50 (mTORC1 [5]): 176 nM | IC50 (mTORC2 [6]): 2410 nM | IC50 [7]: 2550 nM

CC(C)n1nc(-c2cc3cccc(O)c3[nH]2)c2c(N)ncnc21
IC50 (mTORC1 [5]): < 5 nM | IC50 [12]: 100 nM | IC50 [13]: 100 nM

C[C@H]1COCCN1c1cc2nc(-c3cccc(CO)c3)ccc2c(N2CCOC[C@@H]2C)n1
IC50 [9]: < 100 nM

CO[C@@H]1C[C@H](C[C@@H](C)[C@@H]2CC(=O)[C@H](C)/C=C(\C)[C@@H](O)[C@@H](OC)C(=O)[C@H](C)C[C@H](C)/C=C/C=C/C=C(\C)C(OCCO)C[C@@H]3CC[C@@H](C)[C@@](O)(O3)C(=O)C(=O)N3CCCC[C@H]3C(=O)O2)CC[C@H]1OCCCN1CCOC[C@@H]1C (stereo partly drawn)
IC50 (mTORC1 [15]): < 0.316 nM | IC50 (mTORC2 [16]): > 10000 nM

O=S(=O)(Nc1cc(-c2ccc3ncc(N4CCNCC4)nc3c2)cnc1Cl)c1ccc(F)cc1
IC50 [17]: 5.14 nM | IC50 [18]: 4.77 nM

CC(C)(C#N)c1ccc(-n2c3c4cc(-c5ccc(NC(=O)CNC6CCCCC6)nc5)ccc4ncc3n3cnnc23)cc1
residual activity [10]: < 5%

CO[C@@H]1C[C@@H]2CC[C@@H](C)[C@@](O)(O2)C(=O)C(=O)N2CCCC[C@H]2C(=O)OC([C@H](C)C[C@@H]2C[C@@H]3C[C@H]2C[C@H]3O)CC(=O)[C@H](C)/C=C(\C)[C@@H](O)[C@@H](OC)C(=O)[C@H](C)C[C@H](C)/C=C/C=C/C=C/1C (stereo partly drawn)
IC50 (mTORC1 [19]): 0.1 nM | Ki [20]: 3.9 nM | IC50 (DU-145): 2.7 nM | IC50 (SF-268): 0.19 nM | IC50 [14]: 2.2 nM | IC50 (PC-3): 2.5 nM
